This is an account of results in patent US8222404B2, “[1,2,4]Thiadiazin-3-yl acetic acid compound and methods of making the acetic acid compound” (Anadys Pharmaceuticals, Inc., priority 2008, dated 2012).

Bounds are passed on as bounds.

For the assay, the system named is HCV Huh-luc/neo-ET replicon cells. Kind of assay: Luciferase-Based HCV Replicon Assay (EC50 (1b)). The format is cell-based. The note with it: Hepatitis C virus, 72 hours exposure, luciferase activity. A digest of the protocol: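 Replicon cells seeded, then exposed 24 h later to a compound concentration series in triplicate for 72 h. Luciferase luminescence read; % inhibition vs no-compound control, with 100 nM BILN-2061 as background, used to derive EC50 (1b).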
For orientation: A replicon is a self-replicating genome or part of one, used to study replication in cells.
Broadly, the EC50 is the concentration that produces a half-maximal response. Low values mean higher potency in that assay, high ones lower potency in that assay. As for `CS(=O)(=O)NCc1csc2c1S(=O)(=O)N=C(C1=C(O)[C@@H]3CCC[C@@H]3N(Cc3ccc(F)c(F)c3)C1=O)N2` [Example 125, (4aR,7aS)-N-{3-[1-(3,4-Difluoro-benzyl)-4-hydroxy-2-oxo-2,4a,5,6,7,7a-hexahydro-1H-[1]pyrindin-3-yl]-1,1-dioxo-1,4-dihydro-1λ^6-thieno[2,3-e][1,2,4]thiadiazin-7-ylmethyl}-methanesulfonamide], the EC50 lay in the range of 20 to 100 nM.

In turn, `CC(C)CCN1C(=O)C(C2=NS(=O)(=O)c3c(CNS(C)(=O)=O)csc3N2)=C(O)C2CCCCC21` (racemic) [Example 132, (rac-cis)-N-{3-[4-Hydroxy-1-(3-methyl-butyl)-2-oxo-1,2,4a,5,6,7,8,8a-octahydro-quinolin-3-yl]-1,1-dioxo-1,4-dihydro-1λ^6-thieno[2,3-e][1,2,4]thiadiazin-7-ylmethyl}-methanesulfonamide] displayed an EC50 of 20 to 100 nM.

The compound `COc1ccc(CN2C(=O)C(C3=NS(=O)(=O)c4c(CNS(C)(=O)=O)csc4N3)=C(O)[C@@H]3[C@@H]4CC[C@@H](C4)[C@@H]32)c(OC)c1` [Example 73, N-{3-[(1S,2S,7R,8R)-3-(2,4-Dimethoxy-benzyl)-6-hydroxy-4-oxo-3-aza-tricyclo[6.2.1.0^2,7]undec-5-en-5-yl]-1,1-dioxo-1,4-dihydro-1λ^6-thieno[2,3-e][1,2,4]thiadiazin-7-ylmethyl}-methanesulfonamide] displayed an EC50 of more than 1000 nM.

As to `CS(=O)(=O)NCc1csc2c1S(=O)(=O)N=C(C1=C(O)[C@@H]3CCC[C@@H]3N(Cc3ccc(F)c(F)c3F)C1=O)N2` [Example 115, (4aR,7aS)-N-{3-[4-Hydroxy-2-oxo-1-(2,3,4-trifluoro-benzyl)-2,4a,5,6,7,7a-hexahydro-1H-[1]pyrindin-3-yl]-1,1-dioxo-1,4-dihydro-1λ^6-thieno[2,3-e][1,2,4]thiadiazin-7-ylmethyl}-methanesulfonamide], the EC50 fell in the range of 100 to 1000 nM.

As to `CS(=O)(=O)NCc1csc2c1S(=O)(=O)N=C(C1=C(O)[C@@H]3C4CCC(CC4)[C@@H]3N(Cc3ccsc3)C1=O)N2` [Example 60, N-[3-((2S,7R)-6-Hydroxy-4-oxo-3-thiophen-3-ylmethyl-3-aza-tricyclo[6.2.2.0^2,7]dodec-5-en-5-yl)-1,1-dioxo-1,4-dihydro-1λ^6-thieno[2,3-e][1,2,4]thiadiazin-7-ylmethyl]-methanesulfonamide], the concentration giving a half-maximal response (EC50) was not above 5 nM.

As for `CC(C)CCN1C(=O)C(C2=NS(=O)(=O)c3c(CNS(C)(=O)=O)csc3N2)=C(O)[C@@H]2[C@H]3CC[C@H](C3)[C@@H]21` [Example 68, N-{3-[(1R,2S,7R,8S)-6-Hydroxy-3-(3-methyl-butyl)-4-oxo-3-aza-tricyclo[6.2.1.0^2,7]undec-5-en-5-yl]-1,1-dioxo-1,4-dihydro-1λ^6-thieno[2,3-e][1,2,4]thiadiazin-7-ylmethyl}-methanesulfonamide], the EC50 was 5 to 20 nM.

For the compound `CS(=O)(=O)NCc1csc2c1S(=O)(=O)N=C(C1=C(O)C3CCCCCC3N(Cc3cc(F)c(F)c(F)c3)C1=O)N2` (racemic) [Example 140, (rac-cis)-N-{3-[4-Hydroxy-2-oxo-1-(3,4,5-trifluoro-benzyl)-2,4a,5,6,7,8,9,9a-octahydro-1H-cyclohepta[b]pyridin-3-yl]-1,1-dioxo-1,4-dihydro-1λ^6-thieno[2,3-e][1,2,4]thiadiazin-7-ylmethyl}-methanesulfonamide], the EC50 was more than 1000 nM.

Compound `CS(=O)(=O)NCc1csc2c1S(=O)(=O)N=C(C1=C(O)CC(C3CC3)N(Cc3ccc(F)cc3)C1=O)N2` (racemic) [Example 4, rac-N-{3-[6-Cyclopropyl-1-(4-fluoro-benzyl)-4-hydroxy-2-oxo-1,2,5,6-tetrahydro-pyridin-3-yl]-1,1-dioxo-1,4-dihydro-1λ^6-thieno[2,3-e][1,2,4]thiadiazin-7-ylmethyl}-methanesulfonamide] registered an EC50 of 100 to 1000 nM.

With `CS(=O)(=O)NCc1csc2c1S(=O)(=O)N=C(C1=C(O)C3CCCC3N(Cc3ccc(F)cc3)C1=O)N2` (racemic) [Example 2, (rac-cis)-N-{3-[1-(4-Fluoro-benzyl)-4-hydroxy-2-oxo-2,4a,5,6,7,7a-hexahydro-1H-[1]pyrindin-3-yl]-1,1-dioxo-1,4-dihydro-1λ^6-thieno[2,3-e][1,2,4]thiadiazin-7-ylmethyl}-methanesulfonamide], the EC50 was 5 to 20 nM.

The compound `COc1ccc(CN2C(=O)C(C3=NS(=O)(=O)c4c(CNS(C)(=O)=O)csc4N3)=C(O)[C@@H]3[C@H]4CC[C@H](C4)[C@@H]32)c(OC)c1` [Example 72, N-{3-[(1R,2S,7R,8S)-3-(2,4-Dimethoxy-benzyl)-6-hydroxy-4-oxo-3-aza-tricyclo[6.2.1.0^2,7]undec-5-en-5-yl]-1,1-dioxo-1,4-dihydro-1λ^6-thieno[2,3-e][1,2,4]thiadiazin-7-ylmethyl}-methanesulfonamide] yielded an EC50 of more than 1000 nM.

Turning to `CC(C)(C)CCN1C(=O)C(C2=NS(=O)(=O)c3c(CNS(C)(=O)=O)csc3N2)=C(O)[C@@H]2C3CCC(CC3)[C@@H]21` [Example 93, N-{3-[(2S,7R)-3-(3,3-Dimethyl-butyl)-6-hydroxy-4-oxo-3-aza-tricyclo[6.2.2.0^2,7]dodec-5-en-5-yl]-1,1-dioxo-1,4-dihydro-1λ^6-thieno[2,3-e][1,2,4]thiadiazin-7-ylmethyl}-methanesulfonamide], the EC50 is not above 5 nM.

`CS(=O)(=O)NCc1csc2c1S(=O)(=O)N=C(C1=C(O)[C@@H]3[C@H]4CC[C@H](C4)[C@@H]3N(Cc3cc(F)c(F)c(F)c3)C1=O)N2` [Example 54, N-{3-[(1R,2S,7R,8S)-6-Hydroxy-4-oxo-3-(3,4,5-trifluoro-benzyl)-3-aza-tricyclo[6.2.1.0^2,7]undec-5-en-5-yl]-1,1-dioxo-1,4-dihydro-1λ^6-thieno[2,3-e][1,2,4]thiadiazin-7-ylmethyl}-methanesulfonamide] registered an EC50 of 5 to 20 nM.

The compound `CC(C)CCN1C(=O)C(C2=NS(=O)(=O)c3c(CNS(C)(=O)=O)csc3N2)=C(O)C2CCCCCC21` (racemic) [Example 138, (rac-cis)-N-{3-[4-Hydroxy-1-(3-methyl-butyl)-2-oxo-2,4a,5,6,7,8,9,9a-octahydro-1H-cyclohepta[b]pyridin-3-yl]-1,1-dioxo-1,4-dihydro-1λ^6-thieno[2,3-e][1,2,4]thiadiazin-7-ylmethyl}-methanesulfonamide] gave an EC50 of 20 to 100 nM.

`CC1CN(Cc2ccc(F)cc2)C(=O)C(C2=NS(=O)(=O)c3c(CNS(C)(=O)=O)csc3N2)=C1O` (racemic) [Example 10, rac-N-{3-[1-(4-Fluoro-benzyl)-4-hydroxy-5-methyl-2-oxo-1,2,5,6-tetrahydro-pyridin-3-yl]-1,1-dioxo-1,4-dihydro-1λ^6-thieno[2,3-e][1,2,4]thiadiazin-7-ylmethyl}-methanesulfonamide] yielded an EC50 of 100 to 1000 nM.

For the compound `CS(=O)(=O)NCc1csc2c1S(=O)(=O)N=C(C1=C(O)C3CCCC3N(NC3CCC3)C1=O)N2` (racemic) [Example 27, (rac-cis)-N-[3-(1-cyclobutylamino-4-hydroxy-2-oxo-2,4a,5,6,7,7a-hexahydro-1H-[1]pyrindin-3-yl)-1,1-dioxo-1,4-dihydro-1λ^6-thieno[2,3-e][1,2,4]thiadiazin-7-ylmethyl]-methanesulfonamide], the EC50 is more than 1000 nM.

`CS(=O)(=O)NCc1csc2c1S(=O)(=O)N=C(C1=C(O)[C@@H]3C4CCC(CC4)[C@@H]3N(Cc3ccc(F)c(F)c3)C1=O)N2` [Example 92, N-{3-[(2S,7R)-3-(3,4-Difluoro-benzyl)-6-hydroxy-4-oxo-3-aza-tricyclo[6.2.2.0^2,7]dodec-5-en-5-yl]-1,1-dioxo-1,4-dihydro-1λ^6-thieno[2,3-e][1,2,4]thiadiazin-7-ylmethyl}-methanesulfonamide] registered an EC50 not above 5 nM.

As to `CC(C)CCC1(C)CN(c2ccccc2)C(=O)C(C2=NS(=O)(=O)c3c(CNS(C)(=O)=O)csc3N2)=C1O` (stereo not drawn) [Example 31, N-{3-[4-Hydroxy-5-methyl-5-(3-methyl-butyl)-2-oxo-1-phenyl-1,2,5,6-tetrahydro-pyridin-3-yl]-1,1-dioxo-1,4-dihydro-1λ^6-thieno[2,3-e][1,2,4]thiadiazin-7-ylmethyl}-methanesulfonamide], the EC50 is more than 1000 nM.

In turn, `CC(C)C1CN(Cc2ccc(F)cc2)C(=O)C(C2=NS(=O)(=O)c3c(CNS(C)(=O)=O)csc3N2)=C1O` (racemic) [Example 13, rac-N-{3-[1-(4-Fluoro-benzyl)-4-hydroxy-5-isopropyl-2-oxo-1,2,5,6-tetrahydro-pyridin-3-yl]-1,1-dioxo-1,4-dihydro-1λ^6-thieno[2,3-e][1,2,4]thiadiazin-7-ylmethyl}-methanesulfonamide] registered an EC50 of 100 to 1000 nM.

As to `CS(=O)(=O)NCc1csc2c1S(=O)(=O)N=C(C1=C(O)[C@@H]3[C@H]4CC[C@H](C4)[C@@H]3N(CC3(C(F)(F)F)CC3)C1=O)N2` [Example 29, N-{3-[(1R,2S,7R,8S)-6-Hydroxy-4-oxo-3-(1-trifluoromethyl-cyclopropylmethyl)-3-aza-tricyclo[6.2.1.0^2,7]undec-5-en-5-yl]-1,1-dioxo-1,4-dihydro-1λ^6-thieno[2,3-e][1,2,4]thiadiazin-7-ylmethyl}-methanesulfonamide], the EC50 is 5 to 20 nM.

`CS(=O)(=O)NCc1csc2c1S(=O)(=O)N=C(C1=C(O)[C@@H]3C4CCC(CC4)[C@@H]3N(Cc3ccc(F)c(Cl)c3)C1=O)N2` [Example 44, N-{3-[(2S,7R)-3-(3-Chloro-4-fluoro-benzyl)-6-hydroxy-4-oxo-3-aza-tricyclo[6.2.2.0^2,7]dodec-5-en-5-yl]-1,1-dioxo-1,4-dihydro-1λ^6-thieno[2,3-e][1,2,4]thiadiazin-7-ylmethyl}-methanesulfonamide]: the EC50 is not above 5 nM.

As for `CS(=O)(=O)NCc1csc2c1S(=O)(=O)N=C(C1=C(O)[C@@H]3CCC[C@@H]3NC1=O)N2` [Example 85, (4aR,7aS)-N-[3-(4-Hydroxy-2-oxo-2,4a,5,6,7,7a-hexahydro-1H-[1]pyrindin-3-yl)-1,1-dioxo-1,4-dihydro-1λ^6-thieno[2,3-e][1,2,4]thiadiazin-7-ylmethyl]-methanesulfonamide], the EC50 is more than 1000 nM.
